Molecular target: T1, hKv3.1b (Homo sapiens, UniProt P48547)
T1 construct: expressed in transfected cells
T1 sequence (P48547 1-585 isoform P48547-2): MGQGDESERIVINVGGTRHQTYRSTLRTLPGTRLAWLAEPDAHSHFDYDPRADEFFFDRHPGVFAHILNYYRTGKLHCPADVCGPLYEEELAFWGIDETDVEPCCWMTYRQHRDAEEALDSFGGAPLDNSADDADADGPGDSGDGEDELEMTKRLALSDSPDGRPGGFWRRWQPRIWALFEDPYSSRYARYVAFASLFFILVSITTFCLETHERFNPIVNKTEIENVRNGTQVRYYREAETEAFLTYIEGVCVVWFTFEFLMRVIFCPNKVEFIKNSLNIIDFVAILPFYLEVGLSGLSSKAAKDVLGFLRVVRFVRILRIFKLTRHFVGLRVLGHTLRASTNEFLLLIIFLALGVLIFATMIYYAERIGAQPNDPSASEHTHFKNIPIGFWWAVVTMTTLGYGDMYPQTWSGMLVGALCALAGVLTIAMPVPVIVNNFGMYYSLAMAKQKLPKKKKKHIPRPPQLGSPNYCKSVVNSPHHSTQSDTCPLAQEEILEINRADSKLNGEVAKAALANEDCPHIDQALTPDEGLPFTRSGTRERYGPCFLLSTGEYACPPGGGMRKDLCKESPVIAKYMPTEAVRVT
Test: Automated whole-cell patch-clamp (QPatch-16x) on HEK-293 cells stably expressing hKv3.1b: shift of voltage threshold for channel activation
Assay type: cell-based
Details: HEK-293 hKv3.1b; for ECdelta5mV: concentration needed to shift the threshold 5 mV, read out from fitted concentration response curve; for Max Delta threshold: maximum absolute shift of activation threshold to more hyperpolarized potentials at the tested concentrations (0.37, 1.11, 3.33, 10, 30 μM)

| ECdelta5mV | Max Delta threshold | SMILES |
| --- | --- | --- |
| 1100 nM | 34 mV | Cc1cnc(CNC(=O)c2ccn(S(=O)(=O)c3ccc(Cl)cc3C)n2)cn1 [Compound 67, 1-(4-chloro-2-methyl-phenyl)sulfonyl-N-[(5-methylpyrazin-2-yl)methyl]pyrazole-3-carboxamide] |
| 2400 nM | 42 mV | COc1ccc(S(=O)(=O)n2ccc(C(=O)NCc3cnc(C)cn3)n2)c(F)c1 [Compound 68, 1-(2-fluoro-4-methoxy-phenyl)sulfonyl-N-[(5-methylpyrazin-2-yl)methyl]pyrazole-3-carboxamide] |
| 4600 nM | 16 mV | Cc1cnc(CNC(=O)c2ccn(S(=O)(=O)c3ccc(F)c(Cl)c3)n2)cn1 [Compound 69, 1-(3-chloro-4-fluoro-phenyl)sulfonyl-N-[(5-methylpyrazin-2-yl)methyl]pyrazole-3-carboxamide] |
| 4000 nM | 19 mV | Cc1cnc(CNC(=O)c2ccn(S(=O)(=O)c3ccc(OC(F)(F)F)cc3)n2)cn1 [Compound 70, N-[(5-methylpyrazin-2-yl)methyl]-1-[4-(trifluoromethoxy)phenyl]sulfonyl-pyrazole-3-carboxamide] |
| 3500 nM | 27 mV | Cc1cnc(CNC(=O)c2ccn(S(=O)(=O)c3ccc(C(F)F)cc3)n2)cn1 [Compound 71, 1-[4-(difluoromethyl)phenyl]sulfonyl-N-[(5-methylpyrazin-2-yl)methyl]pyrazole-3-carboxamide] |
| 2400 nM | 33 mV | Cc1cnc(CNC(=O)c2ccn(S(=O)(=O)c3ccc(Cl)cc3F)n2)cn1 [Compound 73, 1-(4-chloro-2-fluoro-phenyl)sulfonyl-N-[(5-methylpyrazin-2-yl)methyl]pyrazole-3-carboxamide] |
| 3200 nM | 17 mV | COc1ccc(S(=O)(=O)n2ccc(C(=O)NCc3cnc(C)cn3)n2)cc1F [Compound 74, 1-(3-fluoro-4-methoxy-phenyl)sulfonyl-N-[(5-methylpyrazin-2-yl)methyl]pyrazole-3-carboxamide] |
| 3200 nM | 17 mV | Cc1cnc(CNC(=O)c2ccn(S(=O)(=O)c3cccc(Cl)c3)n2)cn1 [Compound 75, 1-(3-chlorophenyl)sulfonyl-N-[(5-methylpyrazin-2-yl)methyl]pyrazole-3-carboxamide] |
| 1500 nM | 25 mV | Cc1cnc(CNC(=O)c2ccn(S(=O)(=O)c3ccc(Cl)cc3)n2)cn1 [Compound 76, 1-(4-chlorophenyl)sulfonyl-N-[(5-methylpyrazin-2-yl)methyl]pyrazole-3-carboxamide] |
| 1100 nM | 29 mV | Cc1ccc(S(=O)(=O)n2ccc(C(=O)NCc3cnc(C)cn3)n2)c(C)c1 [Compound 77, 1-(2,4-dimethylphenyl)sulfonyl-N-[(5-methylpyrazin-2-yl)methyl]pyrazole-3-carboxamide] |
| 3000 nM | 23 mV | Cc1cnc(CNC(=O)c2ccn(S(=O)(=O)c3ccc(C(F)(F)F)cc3)n2)cn1 [Compound 78, N-[(5-methylpyrazin-2-yl)methyl]-1-[4-(trifluoromethyl)phenyl]sulfonyl-pyrazole-3-carboxamide] |
| 990 nM | 32 mV | Cc1cnc(CNC(=O)c2ccn(S(=O)(=O)c3ccc(C4CC4)cc3)n2)cn1 [Compound 79, 1-(4-cyclopropylphenyl)sulfonyl-N-[(5-methylpyrazin-2-yl)methyl]pyrazole-3-carboxamide] |
| 1500 nM | 31 mV | Cc1ccc(S(=O)(=O)n2ccc(C(=O)NCc3cnc(C)cn3)n2)c(F)c1 [Compound 80, 1-(2-fluoro-4-methyl-phenyl)sulfonyl-N-[(5-methylpyrazin-2-yl)methyl]pyrazole-3-carboxamide] |
| 3000 nM | 17 mV | Cc1cnc(CNC(=O)c2ccn(S(=O)(=O)c3cc(C)c(F)c(C)c3)n2)cn1 [Compound 81, 1-(4-fluoro-3,5-dimethyl-phenyl)sulfonyl-N-[(5-methylpyrazin-2-yl)methyl]pyrazole-3-carboxamide] |
| 1600 nM | 29 mV | COc1ccc(S(=O)(=O)n2ccc(C(=O)NCc3cnc(C)cn3)n2)c(Cl)c1 [Compound 82, 1-(2-chloro-4-methoxy-phenyl)sulfonyl-N-[(5-methylpyrazin-2-yl)methyl]pyrazole-3-carboxamide] |
| 2700 nM | 21 mV | Cc1cnc(CNC(=O)c2ccn(S(=O)(=O)c3c(C)cc(F)cc3C)n2)cn1 [Compound 83, 1-(4-fluoro-2,6-dimethyl-phenyl)sulfonyl-N-[(5-methylpyrazin-2-yl)methyl]pyrazole-3-carboxamide] |
| 7700 nM | 12 mV | Cc1cnc(CNC(=O)c2ccn(S(=O)(=O)c3ccccc3Cl)n2)cn1 [Compound 84, 1-(2-chlorophenyl)sulfonyl-N-[(5-methylpyrazin-2-yl)methyl]pyrazole-3-carboxamide] |
| 2400 nM | 19 mV | COc1ccc(S(=O)(=O)n2ccc(C(=O)NCc3ncccc3F)n2)cc1 [Compound 86, N-[(3-fluoro-2-pyridyl)methyl]-1-(4-methoxyphenyl)sulfonyl-pyrazole-3-carboxamide] |

Reference: US20220220095A1, “N-((HETEROARYL)METHYL)-1-TOSYL-1H-PYRAZOLE-3-CARBOXAMIDE DERIVATIVES AS Kv3 POTASSIUM CHANNEL ACTIVATORS FOR TREATING NEUROLOGICAL AND [sequence] DISORDERS” (H. Lundbeck A/S, priority 2019, published 2022)
